Assay [1] deals with PBMCs. Put plainly: LPS-induced TNFα/IL-8 release in PBMC cells. In kind it is cell-based. The following applies: Homo sapiens, LPS-stimulated PBMCs. The procedure: Peripheral blood mononuclear cells (PBMCs) from healthy subjects are separated from whole blood using a density gradient (Lymphoprep, Axis-Shield Healthcare). The PBMCs are seeded in 96 well plates and treated with compounds at the desired concentration for 2 hours before addition of 1 ng/mL LPS (Escherichia Coli 0111:B4 from Sigma Aldrich) for 24 hours under normal tissue culture conditions (37° C., 5% CO2). The supernatant is harvested for determination of IL-8 and TNFα concentrations by sandwich ELISA (Duo-set, R&D systems) and read on the fluorescence microplate reader (Varioskan® Flash, ThermoFisher Scientific). The concentration at 50% inhibition (IC50) of IL-8 and TNFα production is calculated from the dose response curve.

The test system of assay [2] is PBMCs. Put plainly: IL-2 and IFN gamma release in CD3/CD28 stimulated PBMC cells. In kind it is cell-based. The following applies: Homo sapiens. The protocol: PBMCs from healthy subjects are separated from whole blood using a density gradient (Lymphoprep, Axis-Shield Healthcare). Cells are added to a 96 well plate pre-coated with a mixture of CD3/CD38 monoclonal antibodies (0.3 μg/mL eBioscience and 3 μg/mL BD Pharmingen respectively). Compound at the desired concentration is then added to the wells and the plate left for 3 days under normal tissue culture conditions. Supernatants are harvested and IL-2 and IFN gamma release determined by Sandwich ELISA (Duo-set, R&D System). The IC50 is determined from the dose response curve.

In the next assay the target is p38 MAPKα (Homo sapiens (Human), UniProt Q16539). Put plainly: p38 MAPKα enzyme inhibition (Method 2), Z-LYTE FRET. The assay is classed as biochemical. The procedure: (§1) The enzyme inhibitory activities of compounds disclosed herein are determined by FRET using synthetic peptides labelled with both donor and acceptor fluorophores (Z-LYTE, Invitrogen Ltd., Paisley, UK).
The inhibitory activities of test compounds against the p38 MAPKα isoform (MAPK14: Invitrogen), are evaluated indirectly by determining the level of activation/phosphorylation of the down-stream molecule, MAPKAP-K2. The p38 MAPKα protein (80 ng/mL, 2.5 μL) is mixed with the test compound (2.5 μL of either 4 μg/mL, 0.4 μg/mL, 0.04 μg/mL or 0.004 μg/mL) for 2 hr at RT. […] The mixture is incubated for 1 hr at RT. Development reagent (protease, […]) is added for 1 hr prior to detection in a fluorescence microplate reader (Varioskan® Flash, ThermoFisher Scientific).
This method follows the same steps as Method 1 above, but utilises a higher concentration of the p38 MAPKα protein (2.5 μL of 200 ng/mL protein instead of 2.5 μL of 80 ng/mL protein) for mixing with the test compound.
(§2) In all cases, the site-specific protease cleaves non-phosphorylated peptide only and eliminates the FRET signal. Phosphorylation levels of each reaction are calculated using the ratio of coumarin emission (donor) over fluorescein emission (acceptor), for which high ratios indicate high phosphorylation and low ratios indicate low phosphorylation levels. The percentage inhibition of each reaction is calculated relative to non-inhibited control and the 50% inhibitory concentration (IC50 value) is then calculated from the concentration-response curve.

A further assay concerns HT29 cells. Put plainly: IL-1-induced IL-8 release in HT29 cells. The assay is classed as cell-based. The settings on record: Homo sapiens, HT-29, IL-1β-stimulated HT29 cells, read-out: IC50 Values for Inhibition of Cytokine Release HT29 cells IL-8. The protocol:
HT29 cells, a human colon adenocarcinoma cell line, are plated in a 96 well plate (24 hrs) and pre-treated with compounds at the desired concentration for 2 hours before addition of 5 ng/mL of IL-1β (Abcam) for 24 hours. Supernatants are harvested for IL-8 quantification by Sandwich ELISA (Duo-set, R&D System). The IC50 is determined from the dose response curve.

The next assay deals with d-U937 cells. Put plainly: LPS-induced TNFα/IL-8 release in d-U937 cells. The assay is classed as cell-based. The settings on record: Homo sapiens, dU937, LPS-stimulated d-U937 cells. The protocol:
U937 cells, a human monocytic cell line, are differentiated to macrophage-type cells by incubation with phorbol myristate acetate (PMA; 100 ng/mL) for 48 to 72 hr. Cells are pre-incubated with final concentrations of test compound for 2 hr and are then stimulated with 0.1 μg/mL of LPS (from E. Coli: 0111:B4, Sigma) for 4 hr. The supernatant is collected for determination of TNFα and IL-8 concentrations by sandwich ELISA (Duo-set, R&D systems). The inhibition of TNFα production is calculated as a percentage of that achieved by 10 μg/mL of BIRB796 at each concentration of test compound by comparison against vehicle control. The relative 50% effective concentration (REC50) is determined from the resultant concentration-response curve. The inhibition of IL-8 production is calculated at each concentration of test compound by comparison with vehicle control. The 50% inhibitory concentration (IC50) is determined from the resultant concentration-response curve.

A further assay addresses GSK3α (Homo sapiens (Human), UniProt P49840). Put plainly: GSK 3α enzyme inhibition (Method 2), Z-LYTE FRET. The assay is classed as biochemical. The protocol:
as §1
The inhibitory activities of compounds of the invention against the GSK 3α enzyme isoform (Invitrogen), are evaluated by determining the level of activation/phosphorylation of the target peptide. The GSK3-α protein (500 ng/mL, 2.5 μL) is mixed with the test compound (2.5 μL at either 4 μg/mL, 0.4 μg/mL, 0.04 μg/mL, or 0.004 μg/mL) for 2 hr at RT. The FRET peptide (8 μM, 2.5 μL), which is a phosphorylation target for GSK3α, and ATP (40 μM, 2.5 μL) are then added to the enzyme/compound mixture and the resulting mixture incubated for 1 hr. Development reagent (protease, 5 μL) is added for 1 hr prior to detection in a fluorescence microplate reader (Varioskan® Flash, ThermoFisher Scientific).
as §2
This method follows the same steps as Method 1 above, but utilises a shorter period of mixing of the test compound (105 minutes instead of 2 hours) with the GSK3-α protein.

A further assay addresses c-Src (Homo sapiens (Human), UniProt P12931). Put plainly: c-Src enzyme inhibition, Z-LYTE FRET. The assay is classed as biochemical. The protocol: as §1
(§3) The inhibitory activities of compounds of the invention against c-Src and Syk enzymes (Invitrogen), are evaluated in a similar fashion to that described hereinabove. The relevant enzyme (3000 ng/mL or 2000 ng/mL respectively, 2.5 μL) is incubated with the test compound (either 4 μg/mL, 0.4 μg/mL, 0.04 μg/mL, or 0.004 μg/mL, 2.5 μL each) for 2 hr at RT. The FRET peptides (8 μM. 2.5 μL), and appropriate ATP solutions (2.5 μL, 800 μM for c-Src, and 60 μM ATP for Syk) are then added to the enzymes/compound mixtures and incubated for 1 hr. Development reagent (protease, 5 μL) is added for 1 hr prior to detection in a fluorescence microplate reader (Varioskan® Flash, ThermoFisher Scientific).
as §2

The target in another assay is Syk (Homo sapiens (Human), UniProt P43405). Put plainly: Syk enzyme inhibition, Z-LYTE FRET. In kind it is biochemical. The protocol: as §1, §3, §2
The mark [3] stands for this setting: IL-8, read-out: IC50 Values for Inhibition of Cytokine Release PBMCs IL-8.
[4] abbreviates: IFNγ, read-out: IC50 Values for Inhibition of Cytokine Release PBMCs IFNγ.
The mark [5] stands for this setting: IL-2, read-out: IC50 Values for Inhibition of Cytokine Release PBMCs IL-2.
Where [6] appears, read: IL-8, read-out: IC50 Values for Inhibition of Cytokine Release dU937 cells IL-8.
Where [7] appears, read: TNFα (method describes REC50 relative to BIRB796), read-out: IC50 Values for Inhibition of Cytokine Release dU937 cells TNFα.

A word on the IC50: it is the midpoint of a concentration-inhibition curve.

Where two headings read alike, the source gives them in different places.

c-Src, sequence (P12931 whole entry, looked up): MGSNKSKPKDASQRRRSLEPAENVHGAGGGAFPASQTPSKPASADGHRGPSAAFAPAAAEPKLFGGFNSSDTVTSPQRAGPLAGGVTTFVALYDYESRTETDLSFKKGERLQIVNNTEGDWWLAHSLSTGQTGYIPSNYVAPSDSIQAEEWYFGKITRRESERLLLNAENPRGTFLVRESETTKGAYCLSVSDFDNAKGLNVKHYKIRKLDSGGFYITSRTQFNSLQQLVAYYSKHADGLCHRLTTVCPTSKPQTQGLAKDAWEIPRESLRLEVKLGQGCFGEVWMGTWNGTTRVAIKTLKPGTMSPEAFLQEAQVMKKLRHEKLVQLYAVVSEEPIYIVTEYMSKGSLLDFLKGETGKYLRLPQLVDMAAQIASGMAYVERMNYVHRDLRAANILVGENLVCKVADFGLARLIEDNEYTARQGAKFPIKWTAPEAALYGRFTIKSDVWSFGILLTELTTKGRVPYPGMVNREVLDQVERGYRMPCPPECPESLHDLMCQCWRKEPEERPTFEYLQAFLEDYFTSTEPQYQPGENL
p38 MAPKα, sequence (Q16539 whole entry, canonical isoform): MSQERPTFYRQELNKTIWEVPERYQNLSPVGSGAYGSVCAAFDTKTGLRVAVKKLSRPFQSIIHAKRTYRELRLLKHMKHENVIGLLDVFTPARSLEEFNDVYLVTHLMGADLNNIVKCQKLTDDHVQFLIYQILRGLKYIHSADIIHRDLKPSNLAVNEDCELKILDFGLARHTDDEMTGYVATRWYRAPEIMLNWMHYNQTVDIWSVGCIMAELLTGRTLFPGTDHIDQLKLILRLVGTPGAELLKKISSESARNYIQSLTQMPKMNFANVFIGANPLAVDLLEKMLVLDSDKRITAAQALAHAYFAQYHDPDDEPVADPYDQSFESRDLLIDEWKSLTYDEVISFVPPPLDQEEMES
GSK3α, sequence (P49840 whole entry): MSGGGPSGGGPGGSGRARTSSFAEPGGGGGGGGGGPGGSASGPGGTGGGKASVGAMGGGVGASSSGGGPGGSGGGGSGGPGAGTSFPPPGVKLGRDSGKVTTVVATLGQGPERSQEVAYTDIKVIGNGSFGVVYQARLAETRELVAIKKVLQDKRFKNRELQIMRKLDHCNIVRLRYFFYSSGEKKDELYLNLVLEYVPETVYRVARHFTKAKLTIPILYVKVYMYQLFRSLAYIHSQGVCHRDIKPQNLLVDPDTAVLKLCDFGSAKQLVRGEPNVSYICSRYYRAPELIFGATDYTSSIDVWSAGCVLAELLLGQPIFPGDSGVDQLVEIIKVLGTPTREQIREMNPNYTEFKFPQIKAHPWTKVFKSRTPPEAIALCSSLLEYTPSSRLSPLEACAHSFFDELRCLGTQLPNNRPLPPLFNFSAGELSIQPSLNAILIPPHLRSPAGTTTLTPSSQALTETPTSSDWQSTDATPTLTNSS

Consider `C#CC(C)(C)c1cc(NC(=O)Nc2ccc(Oc3ccnc(Nc4cc(OC(F)(F)F)cc(C(=O)NCCN5CCOCC5)c4)n3)c3ccccc23)n(-c2ccc(C)cc2)n1` [Example 14, 3-((4-((4-(3-(3-(2-Methylbut-3-yn-2-yl)-1-(p-tolyl)-1H-pyrazol-5-yl)ureido)naphthalen-1-yl)oxy)pyrimidin-2-yl)amino)-N-(2-morpholinoethyl)-5-(trifluoromethoxy)benzamide], for which the IC50 was found to be 1.4 nM in the assay on PBMCs [1] (setting [3]); 2 nM in the assay with PBMCs [2] (setting [4]); 170 nM in the assay on PBMCs [2] (setting [5]); 273 nM against p38 MAPKα; 3.6 nM in the assay on HT29 cells; 1.8 nM with d-U937 cells (setting [6]). The values for the IC50 against GSK3α, against c-Src and against Syk were 5440 nM, 37 nM and 203 nM, respectively.
Regarding `C#CC(C)(C)c1cc(NC(=O)Nc2ccc(Oc3ccnc(Nc4ccc5c(c4)NC(=O)C5)n3)c3ccccc23)n(-c2ccc(C)cc2)n1` [Example 3, 1-(3-(2-Methylbut-3-yn-2-yl)-1-(p-tolyl)-1H-pyrazol-5-yl)-3-(4-((2-((2-oxoindolin-6-yl)amino)pyrimidin-4-yl)oxy)naphthalen-1-yl)urea], the IC50 in the assay with PBMCs [1] (setting [3]) was 2.1 nM; in the assay on PBMCs [2] (setting [5]), 0.7 nM; against p38 MAPKα it was 87 nM; with HT29 cells, 6 nM; with d-U937 cells (setting [6]) it was 4.4 nM; in the assay with d-U937 cells (setting [7]), 2.8 nM. Besides, the IC50 at GSK3α was greater than 10000 nM; against c-Src, 203 nM; against Syk it was 113 nM.
Consider `C#Cc1cc(Nc2nccc(Oc3ccc(NC(=O)Nc4cc(C(C)(C)C#C)nn4-c4ccc(C)cc4)c4ccccc34)n2)cc(C(=O)NCCN2CCOCC2)c1` [Example 15, 3-Ethynyl-5-((4-((4-(3-(3-(2-methylbut-3-yn-2-yl)-1-(p-tolyl)-1H-pyrazol-5-yl)ureido)naphthalen-1-yl)oxy)pyrimidin-2-yl)amino)-N-(2-morpholinoethyl)benzamide], for which the IC50 turned out to be 0.8 nM with PBMCs [1] (setting [3]); 2.4 nM with PBMCs [2] (setting [4]); 69.3 nM in the assay with PBMCs [2] (setting [5]); 67 nM on p38 MAPKα; 2.5 nM with HT29 cells; 1.3 nM in the assay with d-U937 cells (setting [6]). Further, the figures for the IC50 against GSK3α, on c-Src and against Syk were 3590 nM, 16 nM and 40 nM, respectively.
Turning to `C#CC(C)(C)c1cc(NC(=O)Nc2ccc(Oc3ccnc(Nc4cc(C(=O)NCCN5CCOCC5)cc(C(F)(F)F)c4)n3)c3ccccc23)n(-c2ccc(C)cc2)n1` [Example 12, 3-((4-((4-(3-(3-(2-Methylbut-3-yn-2-yl)-1-(p-tolyl)-1H-pyrazol-5-yl)ureido)naphthalen-1-yl)oxy)pyrimidin-2-yl)amino)-N-(2-morpholinoethyl)-5-(trifluoromethyl)benzamide], the IC50 with PBMCs [1] (setting [3]) was found to be 2.1 nM; in the assay with PBMCs [2] (setting [4]), 2.6 nM; in the assay with PBMCs [2] (setting [5]), 171 nM; against p38 MAPKα, 214 nM; in the assay on HT29 cells, 3.7 nM; in the assay with d-U937 cells (setting [6]), 1.2 nM. The IC50 against GSK3α came to 2310 nM; at c-Src, 74 nM; at Syk, 275 nM.
Consider `C#CC(C)(C)c1cc(NC(=O)Nc2ccc(Oc3ccnc(Nc4ccccc4)n3)c3ccccc23)n(-c2ccc(C)cc2)n1` [Example 1, 1-(3-(2-Methylbut-3-yn-2-yl)-1-(p-tolyl)-1H-pyrazol-5-yl)-3-(4-((2-(phenylamino)pyrimidin-4-yl)oxy)naphthalen-1-yl)urea], for which the IC50 in the assay with PBMCs [1] (setting [3]) was 1.6 nM; in the assay on PBMCs [1] (TNFα, assay (b), read-out: IC50 for inhibition of TNFα release in PBMCs) it was 2.5 nM; against p38 MAPKα it was 85 nM; in the assay with d-U937 cells (setting [6]), 3.2 nM; with d-U937 cells (setting [7]), 1.4 nM; against GSK3α, greater than 10000 nM. The results for the IC50 against c-Src and against Syk were 60 nM and greater than 1000 nM, respectively.

The record behind these values is patent US9790209B2, “Kinase inhibitors” (Respivert Limited, priority 2012, dated 2017).
